In BigSolDB 2.1:

CC1(C)[C@@H](O)CC[C@]2(C)[C@H]3C(=O)C=C4[C@@H]5C[C@@](C)(C(=O)O)CC[C@]5(C)CC[C@@]4(C)[C@]3(C)CC[C@@H]12
solubility (mole fraction)
Details | 278.15 K | 283.15 K | 288.15 K | 293.15 K | 298.15 K | 303.15 K | 308.15 K | 313.15 K | 318.15 K | 323.15 K
in 1,4-dioxane | – | – | 0.0277 | 0.0286 | 0.0298 | 0.031 | 0.0323 | 0.0335 | 0.0348 | 0.0366
in DMF | 0.0449 | 0.0478 | 0.051 | 0.0545 | 0.058 | 0.0615 | 0.0654 | 0.0692 | 0.0733 | 0.0777
in ethanol | 0.0109 | 0.0115 | 0.0121 | 0.0128 | 0.0134 | 0.0141 | 0.0147 | 0.0155 | 0.0163 | 0.0172
in isopropanol | 0.00911 | 0.00991 | 0.0108 | 0.0116 | 0.0124 | 0.0133 | 0.0142 | 0.0151 | 0.016 | 0.017
in water | 8.02e-08 | 9.91e-08 | 1.22e-07 | 1.5e-07 | 1.82e-07 | 2.2e-07 | 2.61e-07 | 3.17e-07 | 3.76e-07 | 4.49e-07
